PubChem BioAssay (NCI)
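Following 48 hours of exposure in 96-well plates, responses at five concentrations were used to interpolate endpoints linearly. Here, GI50 denotes the concentration required for 50% inhibition of growth. The concentration for full growth arrest is given as TGI.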

Legend:
Assay in all cases: DTP human tumour cell line panel, 48 h
[1] = tested on: COLO 205 colon
[2] = tested on: MCF7 breast
[3] = tested on: NCI/ADR-RES ovarian
[4] = tested on: MOLT-4 leukemia
[5] = tested on: SW-620 colon
[6] = tested on: ACHN renal
[7] = tested on: OVCAR-5 ovarian
[8] = tested on: U251 CNS
[9] = tested on: SK-MEL-5 melanoma
[10] = tested on: NCI-H226 lung
[11] = tested on: HT29 colon
[12] = tested on: SK-MEL-2 melanoma
[13] = tested on: EKVX NSCLC
[14] = tested on: PC-3 prostate
[15] = tested on: HCT-116 colon
[16] = tested on: NCI-H460 lung
[17] = tested on: HL-60(TB) leukemia
[18] = tested on: NCI-H522 lung
[19] = tested on: HCC-2998 colon
[20] = tested on: SK-OV-3 ovarian
[21] = tested on: TK-10 renal
[22] = tested on: T-47D breast
[23] = tested on: MALME-3M melanoma
[24] = tested on: KM12 colon
[25] = tested on: IGROV1 ovarian
[26] = tested on: OVCAR-4 ovarian
[27] = tested on: HCT-15 colon
[28] = tested on: OVCAR-3 ovarian
[29] = tested on: BT-549 breast
[30] = tested on: K-562 leukemia
[31] = tested on: LOX IMVI melanoma
[32] = tested on: SF-295 CNS
[33] = tested on: M14 melanoma
[34] = tested on: A549 NSCLC
[35] = tested on: A498 renal
[36] = tested on: SNB-19 CNS
[37] = tested on: OVCAR-8 ovarian
[38] = tested on: SNB-75 CNS
[39] = tested on: DU-145 prostate
[40] = tested on: SR leukemia
[41] = tested on: MDA-MB-231 breast
[42] = tested on: SK-MEL-28 melanoma
[43] = tested on: SN12C renal
[44] = tested on: HOP-62 NSCLC
[45] = tested on: CCRF-CEM leukemia
[46] = tested on: RXF 393 renal
[47] = tested on: SF-268 CNS
[48] = tested on: RPMI-8226 leukemia
[49] = tested on: NCI-H23 lung
[50] = tested on: HOP-92 NSCLC
[51] = tested on: UACC-62 melanoma
[52] = tested on: UO-31 renal
[53] = tested on: UACC-257 melanoma
[54] = tested on: MDA-MB-435
[55] = tested on: SF-539 CNS
[56] = tested on: HS 578T breast
[57] = tested on: 786-0 renal

Q: Which GI50 [1] does the source give for O=c1[nH]ccc2nc(-c3ccc(CN4CCC(c5nc(-c6ccccn6)n[nH]5)CC4)cc3)c(-c3ccccc3)cc12 here?
A: 1.54 µM

Q: And the TGI [1]?
A: > 100 µM

Q: What about the GI50 [2] of the same molecule?
A: 0.282 µM

Q: What about the TGI [2] of the same molecule?
A: 33.2 µM

Q: What about the GI50 [3] of the same molecule?
A: 36.7 µM

Q: What about the TGI [3] of the same molecule?
A: > 100 µM

Q: What about the GI50 [4] of the same molecule?
A: 0.364 µM

Q: What about the TGI [4] of the same molecule?
A: 4.67 µM

Q: And the GI50 [5]?
A: 42.3 µM

Q: And the TGI [5]?
A: > 100 µM

Q: What about the GI50 [6] of the same molecule?
A: 21.2 µM

Q: What about the TGI [6] of the same molecule?
A: > 100 µM

Q: And the GI50 [7]?
A: 37.8 µM

Q: And the TGI [7]?
A: > 100 µM

Q: What about the GI50 [8] of the same molecule?
A: 13.2 µM

Q: And the TGI [8]?
A: > 66.6 µM

Q: And the GI50 [9]?
A: 6.03 µM

Q: And the TGI [9]?
A: 24 µM

Q: What about the GI50 [10] of the same molecule?
A: 19 µM

Q: And the TGI [10]?
A: > 100 µM

Q: And the GI50 [11]?
A: 1.98 µM

Q: What about the TGI [11] of the same molecule?
A: > 100 µM

Q: And the GI50 [12]?
A: 14.7 µM

Q: What about the TGI [12] of the same molecule?
A: 38 µM

Q: What about the GI50 [13] of the same molecule?
A: 15.8 µM

Q: What about the TGI [13] of the same molecule?
A: > 100 µM

Q: And the GI50 [14]?
A: 0.153 µM

Q: What about the TGI [14] of the same molecule?
A: > 100 µM

Q: What about the GI50 [15] of the same molecule?
A: 17.2 µM

Q: And the TGI [15]?
A: > 92.7 µM

Q: And the GI50 [16]?
A: 1.15 µM

Q: And the TGI [16]?
A: > 100 µM

Q: And the GI50 [17]?
A: 23.6 µM

Q: What about the TGI [17] of the same molecule?
A: > 86.7 µM

Q: And the GI50 [18]?
A: 22.2 µM

Q: And the TGI [18]?
A: > 64.2 µM

Q: And the GI50 [19]?
A: 22.2 µM

Q: What about the TGI [19] of the same molecule?
A: > 100 µM

Q: And the GI50 [20]?
A: 0.124 µM

Q: What about the TGI [20] of the same molecule?
A: > 100 µM

Q: What about the GI50 [21] of the same molecule?
A: 3.37 µM

Q: What about the TGI [21] of the same molecule?
A: 30.4 µM

Q: What about the TGI [22] of the same molecule?
A: 0.0729 µM

Q: And the GI50 [23]?
A: 2.09 µM

Q: And the TGI [23]?
A: 34.7 µM

Q: And the GI50 [24]?
A: 14.7 µM

Q: What about the TGI [24] of the same molecule?
A: > 100 µM

Q: And the GI50 [25]?
A: 0.0652 µM

Q: And the TGI [25]?
A: > 100 µM

Q: What about the GI50 [26] of the same molecule?
A: > 80.7 µM

Q: What about the TGI [26] of the same molecule?
A: > 100 µM

Q: And the GI50 [27]?
A: 16.5 µM

Q: What about the TGI [27] of the same molecule?
A: > 100 µM

Q: And the GI50 [28]?
A: 0.904 µM

Q: What about the TGI [28] of the same molecule?
A: > 66.3 µM

Q: And the GI50 [29]?
A: 0.711 µM

Q: What about the TGI [29] of the same molecule?
A: 30 µM

Q: And the GI50 [30]?
A: 18.9 µM

Q: What about the TGI [30] of the same molecule?
A: > 100 µM

Q: What about the GI50 [31] of the same molecule?
A: 19.3 µM

Q: And the TGI [31]?
A: > 94.2 µM

Q: And the GI50 [32]?
A: 1.11 µM

Q: What about the TGI [32] of the same molecule?
A: 19.9 µM

Q: What about the GI50 [33] of the same molecule?
A: 22.2 µM

Q: What about the TGI [33] of the same molecule?
A: > 100 µM

Q: What about the GI50 [34] of the same molecule?
A: 16.2 µM

Q: What about the TGI [34] of the same molecule?
A: > 100 µM

Q: And the GI50 [35]?
A: < 0.0345 µM

Q: And the TGI [35]?
A: 0.355 µM

Q: And the GI50 [36]?
A: 17.1 µM

Q: What about the TGI [36] of the same molecule?
A: > 100 µM

Q: What about the GI50 [37] of the same molecule?
A: 20 µM

Q: And the TGI [37]?
A: > 100 µM

Q: And the GI50 [38]?
A: 0.0534 µM

Q: What about the TGI [38] of the same molecule?
A: 7.75 µM

Q: And the GI50 [39]?
A: 22.3 µM

Q: And the TGI [39]?
A: > 100 µM

Q: What about the GI50 [40] of the same molecule?
A: 2.34 µM

Q: And the TGI [40]?
A: 66 µM

Q: And the GI50 [41]?
A: 19.2 µM

Q: And the TGI [41]?
A: > 75.8 µM

Q: And the GI50 [42]?
A: 16.8 µM

Q: What about the TGI [42] of the same molecule?
A: > 66.1 µM

Q: And the GI50 [43]?
A: 32.1 µM

Q: What about the TGI [43] of the same molecule?
A: > 100 µM

Q: What about the GI50 [44] of the same molecule?
A: 27.8 µM

Q: What about the TGI [44] of the same molecule?
A: > 100 µM

Q: What about the GI50 [45] of the same molecule?
A: 2.04 µM

Q: And the TGI [45]?
A: > 100 µM

Q: And the GI50 [46]?
A: 0.272 µM

Q: And the TGI [46]?
A: 4.73 µM

Q: And the GI50 [47]?
A: 25.9 µM

Q: What about the TGI [47] of the same molecule?
A: > 100 µM

Q: What about the GI50 [48] of the same molecule?
A: 4.85 µM

Q: And the TGI [48]?
A: > 50.2 µM

Q: And the GI50 [49]?
A: 42.4 µM

Q: And the TGI [49]?
A: > 100 µM

Q: And the GI50 [50]?
A: 0.121 µM

Q: What about the TGI [50] of the same molecule?
A: > 21.3 µM

Q: And the GI50 [51]?
A: 16.3 µM

Q: And the TGI [51]?
A: > 86.6 µM

Q: And the GI50 [52]?
A: 0.975 µM

Q: And the TGI [52]?
A: > 100 µM

Q: And the GI50 [53]?
A: 14.8 µM

Q: What about the TGI [53] of the same molecule?
A: 51.3 µM

Q: And the GI50 [54]?
A: 17.4 µM

Q: What about the TGI [54] of the same molecule?
A: > 100 µM

Q: And the GI50 [55]?
A: 4.81 µM

Q: And the TGI [55]?
A: 20.8 µM

Q: What about the GI50 [56] of the same molecule?
A: 0.592 µM

Q: What about the TGI [56] of the same molecule?
A: 16.5 µM

Q: What about the GI50 [57] of the same molecule?
A: 0.737 µM

Q: And the TGI [57]?
A: 18.1 µM
